Experimental findings from patent US20260297131A1, “COMPOSITIONS AND METHODS FOR PEPTIDE-BASED MODULATORS OF HUMAN PAPILLOMAVIRUS ONCOPROTEIN E6” (priority 2023, published 2026) are described below.

Values joined by “and” are separate entries in the source; they are usually repeats but may differ in a detail not shown here. Identical values can stand only once. Square brackets hold non-standard residues; d marks the D form. Peptide text beside a SMILES is read from it. * marks the point of attachment. Acetyl(9-fluorenyl) = O=C(CC1c2ccccc2-c2ccccc21)*; Anthracene1carbonyl = O=C(c1cccc2cc3ccccc3cc12)*; 1Naphthoyl = O=C(c1cccc2ccccc12)*; Hyp = O=C(O)[C@@H]1C[C@@H](O)CN1; Aad = N[C@@H](CCCC(=O)O)C(=O)O; Cba = N[C@@H](CC1CCC1)C(=O)O; Nva = CCC[C@H](N)C(=O)O; Dha = C=C(N)C(=O)O

The term Kd denotes the equilibrium constant for the complex coming apart. Higher therefore signals lower affinity. Usually Ki stands for a measure of affinity in units of concentration, obtained from inhibition or displacement. Low readings indicate higher affinity, high ones lower affinity.

Assay [1] deals with T1, MBP-16E6 (Human papillomavirus 16, UniProt P03126, C104S/C118S/C147S/C87S).
T1 sequence (P03126 whole entry C104S/C118S/C147S/C87S, looked up): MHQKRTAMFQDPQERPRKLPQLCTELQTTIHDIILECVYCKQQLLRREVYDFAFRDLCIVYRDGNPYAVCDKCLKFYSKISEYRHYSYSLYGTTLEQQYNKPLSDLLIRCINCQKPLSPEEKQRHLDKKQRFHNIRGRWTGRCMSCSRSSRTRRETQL
Assay [2] concerns the target T1, MBP-16E6. In words: biochemical.
The mark [3] stands for this setting: KD, nM, TABLE 2B, BLI competition.

On to `C=C(NC(=O)[C@H](C)NC(=O)[C@H](C)NC(=O)[C@H](CCC(=O)O)NC(=O)[C@H](CCC(N)=O)NC(=O)[C@H](C)NC(=O)[C@@H](NC(=O)[C@H](CC(C)C)NC(=O)[C@H](CCC(=O)O)NC(=O)[C@H](C)NC(=O)[C@H](CO)NC(=O)[C@H](CCC(N)=O)NC(=O)[C@@H]1CCCN1C(=O)[C@@H](NC(=O)CC1c2ccccc2-c2ccccc21)[C@@H](C)CC)[C@@H](C)O)C(=O)N[C@@H](CCCNC(=N)N)C(=O)N[C@@H](CCCNC(=N)N)C(=O)N[C@@H](CCCCN)C(=O)N[C@@H](CCCCN)C(=O)N[C@@H](CCCCNC(=O)c1cccc2cc3ccccc3cc12)C(N)=O` [Peptide 13-3L3A] ({Acetyl(9-fluorenyl)}-IPQSAELTAQEAA[Dha]RRKKK(Anthracene1carbonyl)-NH2), for which the “KD in nM” value on MBP-16E6 [1] (TABLE 2C, BLI competition) is listed as “n.b”. Besides, the “Apparent Ki in nM” value at MBP-16E6 [1] (TABLE 2E, competition with immobilized 1-Biotin following 30 min incubation with 16E6) is given as “n.b”. On to `CC[C@H](C)[C@H](NC(=O)CC1c2ccccc2-c2ccccc21)C(=O)N1CCC[C@H]1C(=O)N[C@@H](CCC(=O)O)C(=O)N[C@@H](CO)C(=O)N[C@@H](C)C(=O)N[C@@H](CCC(=O)O)C(=O)N[C@@H](CC(C)C)C(=O)N[C@H](C(=O)N[C@@H](C)C(=O)N[C@@H](CCC(N)=O)C(=O)N[C@@H](CCC(=O)O)C(=O)N[C@@H](C)C(=O)N[C@@H](C)C(=O)NCC(=O)N[C@@H](CCC(=O)O)C(=O)N[C@@H](CCC(=O)O)C(=O)N[C@@H](CCCNC(=N)N)C(=O)N[C@@H](CCCNC(=N)N)C(=O)N[C@@H](C)C(=O)N[C@@H](C)C(=O)N[C@@H](CCCCNC(=O)c1cccc2cc3ccccc3cc12)C(N)=O)[C@@H](C)O` [6′-3L3A] ({Acetyl(9-fluorenyl)}-IPESAELTAQEAAGEERRAAK(Anthracene1carbonyl)-NH2), for which, on MBP-16E6 [1] (TABLE 2B, BLI competition), the “KD, nM” value is “n.b”. In the case of `CC[C@H](C)[C@H](N)C(=O)N1CCC[C@H]1C(=O)N[C@@H](CCC(=O)O)C(=O)N[C@@H](CO)C(=O)N[C@@H](CO)C(=O)N[C@@H](CCC(=O)O)C(=O)N[C@@H](CC(C)C)C(=O)N[C@H](C(=O)N[C@@H](CC(C)C)C(=O)N[C@@H](CCC(N)=O)C(=O)N[C@@H](CCC(=O)O)C(=O)N[C@@H](CC(C)C)C(=O)N[C@@H](CC(C)C)C(=O)NCC(=O)N[C@@H](CCC(=O)O)C(=O)N[C@@H](CCC(=O)O)C(=O)N[C@@H](CCCNC(=N)N)C(=O)N[C@@H](CCCNC(=N)N)C(N)=O)[C@@H](C)O` [Peptide 1], the Kd at MBP-16E6 [2] (setting [3]) is 2450 ± 513 nM; at MBP-16E6 [2] (competition KD, BLI competition with 1-biotin, 30 nM MBP-16E6), 2300 nM and 2400 nM. At MBP-16E6 [2] (setting [3]), `CC[C@H](C)[C@H](NC(=O)CC1c2ccccc2-c2ccccc21)C(=O)N1CCC[C@H]1C(=O)N[C@@H](CCC(=O)O)C(=O)N[C@@H](CO)C(=O)N[C@@H](CO)C(=O)N[C@@H](CCC(=O)O)C(=O)N[C@@H](CC(C)C)C(=O)N[C@H](C(=O)N[C@@H](CC(C)C)C(=O)N[C@@H](CCC(N)=O)C(=O)N[C@@H](CCC(=O)O)C(=O)N[C@@H](CC(C)C)C(=O)N[C@@H](CC(C)C)C(=O)NCC(=O)N[C@@H](CCC(=O)O)C(=O)N[C@@H](CCC(=O)O)C(=O)N[C@@H](CCCNC(=N)N)C(=O)N[C@@H](CCCNC(=N)N)C(=O)N[C@@H](C)C(=O)N[C@@H](C)C(=O)N[C@@H](CCCCNC(=O)CC1c2ccccc2-c2ccccc21)C(N)=O)[C@@H](C)O` [Entry 2] ({Acetyl(9-fluorenyl)}-IPESSELTLQELLGEERRAAK(Acetyl(9-fluorenyl))-NH2) had a Kd of 8.6 ± 3.2 nM.

With `CC[C@H](C)[C@H](NC(=O)C1CCc2ccccc21)C(=O)N1CCC[C@H]1C(=O)N[C@@H](CCC(=O)O)C(=O)N[C@@H](CO)C(=O)N[C@@H](CO)C(=O)N[C@@H](CCC(=O)O)C(=O)N[C@@H](CC(C)C)C(=O)N[C@H](C(=O)N[C@@H](CC(C)C)C(=O)N[C@@H](CCC(N)=O)C(=O)N[C@@H](CCC(=O)O)C(=O)N[C@@H](CC(C)C)C(=O)N[C@@H](CC(C)C)C(=O)NCC(=O)N[C@@H](CCC(=O)O)C(=O)N[C@@H](CCC(=O)O)C(=O)N[C@@H](CCCNC(=N)N)C(=O)N[C@@H](CCCNC(=N)N)C(N)=O)[C@@H](C)O` (stereo partly shown) [Peptide N3], the “decrease in binding by change of terminal group” value at MBP-16E6 [1] (relative to fluorene-modified N1 / parent modification) was ~ 42 fold.

Take `CC[C@H](C)[C@H](NC(=O)CC1c2ccccc2-c2ccccc21)C(=O)N1CCC[C@H]1C(=O)N[C@@H](CCC(=O)O)C(=O)N[C@@H](CO)C(=O)N[C@@H](C)C(=O)N[C@@H](CCC(=O)O)C(=O)N[C@@H](CC(C)C)C(=O)N[C@H](C(=O)N[C@@H](CC(C)C)C(=O)N[C@@H](CCC(N)=O)C(=O)N[C@@H](CCC(=O)O)C(=O)N[C@@H](CC(C)C)C(=O)N[C@@H](CC(C)C)C(=O)NCC(=O)N[C@@H](CCC(=O)O)C(=O)N[C@@H](CCC(=O)O)C(=O)N[C@@H](CCCNC(=N)N)C(=O)N[C@@H](CCCNC(=N)N)C(=O)N[C@@H](C)C(=O)N[C@@H](C)C(=O)N[C@@H](CCCCNC(=O)c1cccc2cc3ccccc3cc12)C(N)=O)[C@@H](C)O` [peptide 6′] ({Acetyl(9-fluorenyl)}-IPESAELTLQELLGEERRAAK(Anthracene1carbonyl)-NH2): the Kd on MBP-16E6 [2] (KD in nM, TABLE 2C, BLI competition) is 1.4 ± 0.6 nM; at MBP-16E6 [2] (setting [3]) it was 2.7 ± 1.2 nM; on MBP-16E6 [2] (competition KD, BLI competition, values in text) it was 2.7 nM. At MBP-16E6 [2], `C=C(NC(=O)[C@H](CCC)NC(=O)[C@H](CC1CCC1)NC(=O)[C@H](CCC(=O)O)NC(=O)CNC(=O)[C@H](CCC)NC(=O)[C@@H]1C[C@@H](O)CN1C(=O)[C@H](CCC)NC(=O)[C@@H](N)CCCC(=O)O)C(=O)N[C@@H](CCC(=O)O)C(=O)N[C@@H](CCC(=O)O)C(=O)N[C@@H](CCCNC(=N)N)C(N)=O` [peptide 3] (H-[Aad][Nva][Hyp][Nva]GE[Cba][Nva][Dha]EER-NH2) registered a Ki of 466 nM. In turn, `CC[C@H](C)[C@H](NC(=O)CC1c2ccccc2-c2ccccc21)C(=O)N1CCC[C@H]1C(=O)N[C@@H](CCC(=O)O)C(=O)N[C@@H](CO)C(=O)N[C@@H](CO)C(=O)N[C@@H](CCC(=O)O)C(=O)N[C@@H](CC(C)C)C(=O)N[C@H](C(=O)N[C@@H](CC(C)C)C(=O)N[C@@H](CCC(N)=O)C(=O)N[C@@H](CCC(=O)O)C(=O)N[C@@H](CC(C)C)C(=O)N[C@@H](CC(C)C)C(=O)NCC(=O)N[C@@H](CCC(=O)O)C(=O)N[C@@H](CCC(=O)O)C(=O)N[C@@H](CCCNC(=N)N)C(=O)N[C@@H](CCCNC(=N)N)C(=O)N[C@@H](C)C(=O)N[C@@H](C)C(=O)N[C@@H](CCCCNC(=O)c1cccc2ccccc12)C(N)=O)[C@@H](C)O` [Entry 4] ({Acetyl(9-fluorenyl)}-IPESSELTLQELLGEERRAAK(1Naphthoyl)-NH2) registered a Kd on MBP-16E6 [2] (setting [3]) of 47 ± 7.4 nM. On the same count and under the same terms, to `CC[C@H](C)[C@H](NC(=O)CC1c2ccccc2-c2ccccc21)C(=O)N1CCC[C@H]1C(=O)N[C@@H](CCC(=O)O)C(=O)N[C@@H](CO)C(=O)N[C@@H](CO)C(=O)N[C@@H](CCC(=O)O)C(=O)N[C@@H](CC(C)C)C(=O)N[C@H](C(=O)N[C@@H](CC(C)C)C(=O)N[C@@H](CCC(N)=O)C(=O)N[C@@H](CCC(=O)O)C(=O)N[C@@H](CC(C)C)C(=O)N[C@@H](CC(C)C)C(=O)NCC(=O)N[C@@H](CCC(=O)O)C(=O)N[C@@H](CCC(=O)O)C(=O)N[C@@H](CCCNC(=N)N)C(=O)N[C@@H](CCCNC(=N)N)C(=O)N[C@@H](C)C(=O)N[C@@H](C)C(=O)N[C@@H](CCCCNC(=O)c1cccc2cc3ccccc3cc12)C(N)=O)[C@@H](C)O` [Entry 6] ({Acetyl(9-fluorenyl)}-IPESSELTLQELLGEERRAAK(Anthracene1carbonyl)-NH2) belongs 3.7 ± 1.9 nM.
